melting point	Compound
144 to 146 °C	COc1cc2ncnc(N3CCN(C(=O)Nc4ccc(C(=O)C(F)(F)F)cc4)CC3)c2cc1OC [Compound 243, 4-(6,7-Dimethoxy-4-quinazolinyl)-N-(4-trifluoroacetylphenyl)-1-piperazinecarboxamide]
208 to 209 °C	COc1cc2ncnc(N3CCN(C(=O)Nc4cccnc4)CC3)c2cc1OC [Compound 265, 4-(6,7-Dimethoxy-4-quinazolinyl)-N-(3-pyridyl)-1-piperazinecarboxamide]
189 to 190 °C	COc1cc2ncnc(N3CCN(C(=O)N[C@H](C)c4ccccc4)CC3)c2cc1OC [Compound 128, (R)-4-(6,7-Dimethoxy-4-quinazolinyl)-N-(1-phenylethyl)-1-piperazinecarboxamide]
187 to 189 °C	COc1cc2ncnc(N3CCN(C(=S)NCc4ccccc4)CC3)c2cc1OC [Compound 125, N-Benzyl-4-(6,7-dimethoxy-4-quinazolinyl)-1-piperazinethiocarboxamide]
218 to 220 °C	COc1cc2ncnc(N3CCN(C(=S)NCc4ccc(Cl)cc4)CC3)c2cc1OC [Compound 42, N-(4-Chlorobenzyl)-4-(6,7-dimethoxy-4-quinazolinyl)-1-piperazinethiocarboxamide]
147 to 148 °C	COc1ccc(CNC(=O)N2CCN(c3ncnc4cc(OC)c(OC)cc34)CC2)cc1 [Compound 198, 4-(6,7-Dimethoxy-4-quinazolinyl)-N-(4-methoxybenzyl)-1-piperazinecarboxamide]
213 to 215 °C	COc1cc2ncnc(N3CCN(C(=O)Nc4cc(C)c(C)cc4[N+](=O)[O-])CC3)c2cc1OC [Compound 237, 4-(6,7-Dimethoxy-4-quinazolinyl)-N-(4,5-dimethyl-2-nitrophenyl)-1-piperazinecarboxamide]
178 to 179 °C	COc1cc2ncnc(N3CCN(C(=O)NCc4ccsc4)CC3)c2cc1OC [Compound 258, 4-(6,7-Dimethoxy-4-quinazolinyl)-N-(3-thienylmethyl)-1-piperazinecarboxamide]
208 to 210 °C	COc1cc2ncnc(N3CCN(C(=S)Nc4ccccn4)CC3)c2cc1OC [Compound 262, 4-(6,7-Dimethoxy-4-quinazolinyl)-N-(2-pyridyl)-1-piperazinethiocarboxamide]
202 to 204 °C	COc1cc2ncnc(N3CCN(C(=O)NCc4cnc(C)cn4)CC3)c2cc1OC [Compound 278, 4-(6,7-Dimethoxy-4-quinazolinyl)-N-(5-methyl-2-pyrazinylmethyl)-1-piperazinecarboxamide]
110 to 111 °C	C=Cc1ccc(NC(=S)N2CCN(c3ncnc4cc(OC)c(OC)cc34)CC2)cc1 [Compound 24, 4-(6,7-Dimethoxy-4-quinazolinyl)-N-(4-vinylphenyl)-1-piperazinethiocarboxamide]
208 to 210 °C	COc1cc2ncnc(N3CCN(C(=O)NC4CCCCC4)CC3)c2cc1OC [Compound 13, N-Cyclohexyl-4-(6,7-dimethoxy-4-quinazolinyl)-1-piperazinecarboxamide]
204 to 205 °C	COc1cc2ncnc(N3CCN(C(=O)Nc4ccc(OC(F)(F)F)cc4)CC3)c2cc1OC [Compound 59, 4-(6,7-Dimethoxy-4-quinazolinyl)-N-[4-(trifluoromethoxy)phenyl]-1-piperazinecarboxamide]
240 to 244 °C	COc1cc2ncnc(N3CCN(C(=O)Nc4cccc(C#N)c4)CC3)c2cc1OC [Compound 84, N-(3-Cyanophenyl)-4-(6,7-dimethoxy-4-quinazolinyl)-1-piperazinecarboxamide]
241 to 245 °C	COc1cc2ncnc(N3CCN(C(=O)Nc4cccc(C(C)=O)c4)CC3)c2cc1OC [Compound 86, N-(3-Acetylphenyl)-4-(6,7-dimethoxy-4-quinazolinyl)-1-piperazinecarboxamide]
157 to 160 °C	COc1cc2c(N3CCN(C(=O)Nc4ccc(Oc5ccccc5)cc4)CC3)ncnc2cc1OC(C)C [Compound 339, 4-(7-Isopropoxy-6-methoxy-4-quinazolinyl)-N-(4-phenoxyphenyl)-1-piperazinecarboxamide]
182 to 185 °C	COc1cc2ncnc(N3CCN(C(=O)Nc4ccc(CNCc5ccncc5)cc4)CC3)c2cc1OC.Cl.Cl.Cl
214 to 220 °C	COc1cc2ncnc(N3CCN(C(=O)Nc4cccc(F)c4)CC3)c2cc1OC [Compound 35, 4-(6,7-Dimethoxy-4-quinazolinyl)-N-(3-fluorophenyl)-1-piperazinecarboxamide]
217 to 218 °C	COc1cc2ncnc(N3CCN(C(=S)NCc4ccc(Br)cc4)CC3)c2cc1OC [Compound 185, N-(4-Bromobenzyl)-4-(6,7-dimethoxy-4-quinazolinyl)-1-piperazinethiocarboxamide]
200 to 201 °C	COc1cc2ncnc(N3CCN(C(=O)Nc4ccc(F)c(Cl)c4)CC3)c2cc1OC [Compound 193, N-(3-Chloro-4-fluorophenyl)-4-(6,7-dimethoxy-4-quinazolinyl)-1-piperazinecarboxamide]
180 to 181 °C	COc1cc2ncnc(N3CCN(C(=O)Nc4cccc(C(F)(F)F)c4)CC3)c2cc1OC [Compound 162, 4-(6,7-Dimethoxy-4-quinazolinyl)-N-(3-trifluoromethylphenyl)-1-piperazinecarboxamide]
158 to 160 °C	C#CCNC(=S)N1CCN(c2ncnc3cc(OC)c(OC)cc23)CC1 [Compound 16, 4-(6,7-Dimethoxy-4-quinazolinyl)-N-(2-propynyl)-1-piperazinethiocarboxamide]

The next lines start with the compound.

Compound	melting point
CCOC(=O)c1cnc2cc(OC)c(OC)cc2c1N1CCN(C(=O)Nc2ccc(Oc3ccccc3)cc2)CC1 [Compound 408, 4-(6,7-Dimethoxy-3-ethoxycarbonyl-4-quinolyl)-N-(4-phenoxyphenyl)-1-piperazinecarboxamide]	163 to 164 °C
O=C(Nc1ccc(Oc2ccccc2)cc1)N1CCN(c2ncnc3ccc(I)cc23)CC1 [Compound 305, 4-(6-Iodo-4-quinazolinyl)-N-(4-phenoxyphenyl)-1-piperazinecarboxamide]	184 to 185 °C
COc1ccc(CCNC(=S)N2CCN(c3ncnc4cc(OC)c(OC)cc34)CC2)cc1OC [Compound 206, N-[2-(3,4-Dimethoxyphenyl)ethyl]-4-(6,7-dimethoxy-4-quinazolinyl)-1-piperazinethiocarboxamide]	98 to 100 °C
O=C(Nc1ccc(Oc2ccccc2)cc1)N1CCN(c2ncnc3ccc(Br)cc23)CC1 [Compound 303, 4-(6-Bromo-4-quinazolinyl)-N-(4-phenoxyphenyl)-1-piperazinecarboxamide]	169 to 170 °C
Cl.Cl.S=C(NCc1cccnc1)N1CCN(c2ccnc3cc(Cl)ccc23)CC1	170 to 173 °C
O=C(Nc1ccc(Oc2ccccc2)cc1)N1CCN(c2nncc3ccccc23)CC1 [Compound 414, N-(4-Phenoxyphenyl)-4-(1-phthalazinyl)-1-piperazinecarboxamide]	202 to 203 °C
CCn1c(=O)[nH]c2cc3c(N4CCN(C(=O)Nc5ccc(Oc6ccccc6)cc5)CC4)ncnc3cc21 [Compound 123, 4-(3-Ethyl-1,3-dihydro-2-oxo-2H-imidazo[4,5-g]quinazolin-8-yl)-N-(4-phenoxyphenyl)-1-piperazinecarboxamide]	248 to 251 °C
S=C(NCc1ccccc1)N1CCN(c2ncnc3cc4c(cc23)OCO4)CC1 [Compound 370, N-Benzyl-4-(6,7-methylenedioxy-4-quinazolinyl)-1-piperazinethiocarboxamide]	176 to 177 °C
COc1cc2cc(Cl)nc(N3CCN(C(=O)Nc4ccc([N+](=O)[O-])cc4)CC3)c2cc1OC [Compound 114, 4-(3-Chloro-6,7-dimethoxy-1-isoquinolyl)-N-(4-nitrophenyl)-1-piperazinecarboxamide]	227 to 228 °C
S=C(NCc1ccc(Cl)cc1)N1CCN(c2ccnc3ccc(Cl)cc23)CC1 [Compound 401, N-(4-Chlorobenzyl)-4-(6-chloro-4-quinolyl)-1-piperazinethiocarboxamide]	89 to 90 °C
CC(=O)c1ccc(NC(=O)N2CCN(c3ncnc4c(Cl)cccc34)CC2)cc1 [Compound 325, N-(4-Acetylphenyl)-4-(8-chloro-4-quinazolinyl)-1-piperazinecarboxamide]	208 to 209 °C
O=C(Nc1ccc([N+](=O)[O-])cc1)N1CCN(c2ncnc3cc4c(cc23)OCO4)CC1 [Compound 368, 4-(6,7-Methylenedioxy-4-quinazolinyl)-N-(4-nitrophenyl)-1-piperazinecarboxamide]	247 to 250 °C
Cc1cccc2ncnc(N3CCN(C(=O)Nc4ccc(Oc5ccccc5)cc4)CC3)c12 [Compound 287, 4-(5-Methyl-4-quinazolinyl)-N-(4-phenoxyphenyl)-1-piperazinecarboxamide]	187 to 188 °C
COc1cc2ncnc(N3CCN(C(=S)NCc4ccc(C)c(Cl)c4)CC3)c2cc1OC [Compound 190, N-(3-Chloro-4-methylbenzyl)-4-(6,7-dimethoxy-4-quinazolinyl)-1-piperazinethiocarboxamide]	108 to 110 °C
CCn1nnc2cc3c(N4CCN(C(=O)Nc5ccc(Oc6ccccc6)cc5)CC4)ncnc3cc21 [Compound 124, 4-(3-Ethyl-3H-1,2,3-triazolo[4,5-g]quinazolin-8-yl)-N-(4-phenoxyphenyl)-1-piperazinecarboxamide]	167 to 168 °C
CCCCOC(=O)c1ccc(NC(=O)N2CCN(c3ncnc4cc(OC)c(OC)cc34)CC2)cc1 [Compound 90, N-(4-Butoxycarbonylphenyl)-4-(6,7-dimethoxy-4-quinazolinyl)-1-piperazinecarboxamide]	226 to 227 °C
COc1cc2ncnc(N3CCN(C(=S)NCc4ccccc4)CC3)c2cc1OS(C)(=O)=O [Compound 351, N-Benzyl-4-(6-mesyloxy-7-methoxy-4-quinazolinyl)-1-piperazinethiocarboxamide]	76 to 80 °C
COc1cc2ncnc(N3CCN(C(=S)Nc4ccc5ccc6cccc7ccc4c5c67)CC3)c2cc1OC	140 to 145 °C
COc1cc2nccc(N3CCN(C(=O)Nc4ccc(Oc5ccccc5)cc4)CC3)c2cc1OC [Compound 407, 4-(6,7-Dimethoxy-4-quinolyl)-N-(4-phenoxyphenyl)-1-piperazinecarboxamide]	204 to 206 °C

— patent US6472391B2, “Nitrogen-containing heterocyclic compounds” (Millennium Pharmaceuticals, Inc., priority 1996, dated 2002)
